Key:
yeast strain BY4741 = assay: Drug response full-genome cDNA microarray gene expression experiments; type: cell-based, Saccharomyces cerevisiae; conditions: among 552 genes which differed in expression between drug treated and normal yeast; dosages of 10, 50 and 100 mg in 10 ml of DMF; 0, 15, 30, 45 and 60 minutes
Protocol: The yeast strain used in this study is BY4741. To monitor the gene expression profile, cells were pre-grown at 30° C. in YPD (2% polypeptone, 1% yeast extract and 2% glucose) to mid-exponential phase and were exposed with Griseofulvin by adding it to the medium to the concentrations at 0, 10, 25, 50, and 100 mg/ml. The exposed cells were harvested at 0, 15, 30, 45 and 60 min after addition by Griseofulvin and used for RNA extraction. Total RNAs were extracted by the hot-phenol method.
We measured the quantities of 5871 mRNA species from 20 drug treated strains by cDNA microarray assay. A difference in fluorescent strength between Cy3, Cy5 causes bias of the expression quantity ratio. We normalized the expression quantity ratios of each expression profile. […] The logarithm value of the ratio was used to indicate the standard expression level, therefore we found the logarithm value of ratio and calculated the average and standard deviation of these log values (see table1). The Standard Deviation (SD) of expression levels of all spotted genes from the UME6 (YDR207C) disruptant expression array for which UME6 is defined as a “Global Regulator” in YPD^(33) disruptant was 0.4931, therefore we recognized that there are an unacceptable number of errors in array data whose overall SD was larger than 0.5 and eliminated such experiments from analysis. […]

CIK1 = assay: Boolean network analysis of joint drug response and gene disruption expression matrices (virtual gene); type: cell-based, Saccharomyces cerevisiae
Source text: In addition to the Boolean methods for gene disruption experiments reported elsewhere^(11), we created a gene expression matrix E from a set of the drug treatment experiments combined with disruptant expression data. In the case of drug generated perturbation, we created a “virtual” gene to represent the drug affect analogous to a gene disruption. We then were able to use standard disruption matrix algorithms designed for disruption based data.
In YPD, 314 genes were defined as “transcription factors”, and 98 of these have previously been studied for control mechanism. The expression profile data of 552 genes including the genes that are controlled by these 98 “transcription factors” were selected from 5871 profiles. Thus we constructed the gene regulatory network from the expression profile data set based on the values of these 552 genes in 120 gene disruption experiments and 20 drug treatment experiments.
However, the use of gene regulatory network models, combined with the drug perturbation data allows for a hierarchical gene regulatory view of the drug's interaction with genes in the transcriptome. To generate this gene network drug perturbation data, we first created a full genome expression library of 542 single-gene disruption mutants. The 120 array data selected from the library was logically joined with the array matrices generated from the Griseofulvin experiments. […]

[1] = system: mitotic spindle structure in yeast; assay: Pathological and microscopic examination of Griseofulvin treated yeast versus CIK1 disrupted yeast; type: cell-based
Source text: CIK1 codes for a protein described in the yeast proteome database (YPD) as a coiled-coil protein of the spindle pole body involved in spindle formation and the congression (nuclear migration) step of karyogamy^(13). Since the action of Griseofulvin is known to affect mitotic spindle formation, which is in agreement with the function of CIK1^(14), we performed a pathological examination of a yeast strain with a disrupted CIK1 gene and yeast affected by Griseofulvin.

[2] = system: mitotic spindle structure in fungi; conditions: cited from earlier work

## COC1=CC(=O)C[C@@H](C)[C@]12Oc1c(Cl)c(OC)cc(OC)c1C2=O [Griseofulvin]
Yeast strain BY4741
  genes downregulated by over a 2 sigma threshold: 183 genes
CIK1; among the 8 first-effect genes, across the experiments
  suppression of CIK1 expression: strongest suppression effects
CIK1; at each time and drug concentration
  genes consistently and significantly suppressed as first effects: 8 genes
[1]; microscopic examination
  mitotic spindle structure compared with CIK1 deleted yeast: very similar changes of the spindle body and surrounding organizational structures
[1]; normal physiological dosage
  lethality to yeast: neither the treatment with Griseofulvin at normal physiological dosage nor the disruption of CIK1 are lethal
[2]
  effect on mitotic spindle structure: disrupts mitotic spindle structure in fungi to lead to metaphase arrest
